pIC50: −log10 of the molar value.

Test [1] concerns the target T1, SMYD3 (Homo sapiens (Human), UniProt Q9H7B4). The test can be described thus: SMYD3 biochemical assay (SPA, 3H-SAM methylation of MEKK2 protein substrate). The method, boiled down:
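Native full-length human SMYD3 (E. coli-expressed, tags removed) was preincubated with compound for 30 min at room temperature in 25 mM Tris-Cl pH 8.0, 1 mM TCEP, 0.005% BSG, 0.005% Tween 20. Reaction was started with 3H-SAM plus GST-MEKK2, quenched with 100 uM unlabeled SAM, and read by SPA scintillation counting.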

Test [2] has as its target T1, SMYD3. The test can be described thus: SMYD3 cell assay (Trimethyl-MEKK2 In-Cell Western in 293T/17 cells). The test is classed as cell-based. Summed up: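 In-Cell Western ratio of trimethyl-Lys260 MEKK2 to anti-flag signal; percent inhibition from DMSO and maximum-inhibition controls, IC50 by non-linear regression, triplicates.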
Setting [3] is: average of n = 1 to n = 50, read-out: SMYD3 Biochem IC50.
Setting [4] is: average of n = 1 to n = 50, read-out: SMYD3 Cell IC50.

T1 sequence (Q9H7B4 whole entry): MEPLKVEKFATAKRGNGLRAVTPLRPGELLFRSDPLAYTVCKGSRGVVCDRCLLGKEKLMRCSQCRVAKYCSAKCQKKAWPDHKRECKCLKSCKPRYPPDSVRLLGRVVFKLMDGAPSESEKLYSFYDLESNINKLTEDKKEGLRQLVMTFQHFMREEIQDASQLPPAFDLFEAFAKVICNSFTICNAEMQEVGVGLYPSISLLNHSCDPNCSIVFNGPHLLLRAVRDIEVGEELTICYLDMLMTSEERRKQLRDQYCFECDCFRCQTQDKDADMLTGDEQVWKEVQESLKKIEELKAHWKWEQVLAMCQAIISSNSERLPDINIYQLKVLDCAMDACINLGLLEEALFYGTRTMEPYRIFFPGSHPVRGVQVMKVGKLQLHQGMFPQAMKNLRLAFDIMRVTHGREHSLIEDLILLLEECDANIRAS

For the molecule `C[C@H]1CN(S(=O)(=O)CC2CCN(CCN3CCOCC3)CC2)CC[C@H]1NC(=O)c1cc(C2CC2)on1` [compound 738, 5-cyclopropyl-N-((3S,4R)-3-methyl-1-(((1-(2-morpholinoethyl)piperidin-4-yl)methyl)sulfonyl)piperidin-4-yl)isoxazole-3-carboxamide], the results for the pIC50 on SMYD3 [1] (setting [3]) and on SMYD3 [2] (setting [4]) were 6.32 and 5.55, respectively.
On to `O=C(N[C@H]1C[C@H]2CC[C@@H](C1)N2S(=O)(=O)CCc1ccncc1)c1cc(C2CC2)on1` [compound 739, 5-cyclopropyl-N-((1R,3r,5S)-8-((2-(pyridin-4-yl)ethyl)sulfonyl)-8-azabicyclo[3.2.1]octan-3-yl)isoxazole-3-carboxamide], for which the pIC50 on SMYD3 [1] (setting [3]) is 6.31; at SMYD3 [2] (setting [4]) it was 5.62.
For the molecule `CN(CCN1CCOCC1)CCS(=O)(=O)N1[C@@H]2CC[C@H]1C[C@@H](NC(=O)c1cc(C3CC3)on1)C2` [compound 742, 5-cyclopropyl-N-((1R,3r,5S)-8-((2-(methyl(2-morpholinoethyl)amino)ethyl)sulfonyl)-8-azabicyclo[3.2.1]octan-3-yl)isoxazole-3-carboxamide], the pIC50 at SMYD3 [1] (setting [3]) is 6.29; on SMYD3 [2] (setting [4]) it was 6.05.
`O=C(N[C@H]1C[C@H]2CC[C@@H](C1)N2S(=O)(=O)CCNCCN1CCOCC1)c1cc(C2CC2)on1` [compound 743, 5-cyclopropyl-N-((1R,3r,5S)-8-((2-((2-morpholinoethyl)amino)ethyl)sulfonyl)-8-azabicyclo[3.2.1]octan-3-yl)isoxazole-3-carboxamide]: the pIC50 on SMYD3 [1] (setting [3]) is 6.29; at SMYD3 [2] (setting [4]), 5.74.
Regarding `O=C(N[C@@H]1CCN(S(=O)(=O)CC2CCNCC2)[C@H](Cc2ccccc2)C1)c1cc(C2CC2)on1` [compound 744, N-((2R,4R)-2-benzyl-1-((piperidin-4-ylmethyl)sulfonyl)piperidin-4-yl)-5-cyclopropylisoxazole-3-carboxamide], the figures for the pIC50 on SMYD3 [1] (setting [3]) and on SMYD3 [2] (setting [4]) were 6.29 and 5.63, respectively.
Consider `O=C(N[C@H]1CCN(S(=O)(=O)CC2CCCN2)[C@@H](Cc2ccccc2)C1)c1cc(C2CC2)on1` (stereo partly drawn) [compound 745, N-((2S,4S)-2-benzyl-1-((pyrrolidin-2-ylmethyl)sulfonyl)piperidin-4-yl)-5-cyclopropylisoxazole-3-carboxamide], for which the pIC50 was 6.27 at SMYD3 [1] (setting [3]) and 5.58 at SMYD3 [2] (setting [4]).
For the molecule `C[C@@H]1CN(S(=O)(=O)CCN2CCCC2)[C@H](C)C[C@@H]1NC(=O)c1cc(C2CC2)on1` [compound 746, 5-cyclopropyl-N-((2R,4S,5R)-2,5-dimethyl-1-((2-(pyrrolidin-1-yl)ethyl)sulfonyl)piperidin-4-yl)isoxazole-3-carboxamide], the pIC50 at SMYD3 [1] (setting [3]) is 6.27; at SMYD3 [2] (setting [4]), 5.78.
For the molecule `C[C@@H]1C[C@H](NC(=O)c2cc(C3CC3)on2)CCN1C(=O)c1ccc2c(c1)ncn2C` [compound 747, 5-cyclopropyl-N-((2R,4R)-2-methyl-1-(1-methyl-1H-benzo[d]imidazole-5-carbonyl)piperidin-4-yl)isoxazole-3-carboxamide], the pIC50 at SMYD3 [1] (setting [3]) is 6.23; on SMYD3 [2] (setting [4]) it was 5.62.
`CN(CCc1ccccc1)CCS(=O)(=O)N1[C@@H]2CC[C@H]1C[C@@H](NC(=O)c1cc(C3CC3)on1)C2` [compound 748, 5-cyclopropyl-N-((1R,3r,5S)-8-((2-(methyl(phenethyl)amino)ethyl)sulfonyl)-8-azabicyclo[3.2.1]octan-3-yl)isoxazole-3-carboxamide]: the values for the pIC50 at SMYD3 [1] (setting [3]) and at SMYD3 [2] (setting [4]) were 6.23 and 5.50, respectively.
For the molecule `O=C(N[C@H]1C[C@H]2CC[C@@H](C1)N2S(=O)(=O)N1CCNC(Cc2ccccc2)C1)c1cc(C2CC2)on1` (stereo partly drawn) [compound 749, N-((1R,3r,5S)-8-((3-benzylpiperazin-1-yl)sulfonyl)-8-azabicyclo[3.2.1]octan-3-yl)-5-cyclopropylisoxazole-3-carboxamide], the pIC50 on SMYD3 [1] (setting [3]) is 6.23; on SMYD3 [2] (setting [4]), 5.45.
On the same counts, the results for `COCCCN1CCC(CS(=O)(=O)N2CC[C@H](NC(=O)c3cc(C4CC4)on3)C[C@@H]2Cc2ccccc2)CC1` [compound 750, N-((2S,4S)-2-benzyl-1-(((1-(3-methoxypropyl)piperidin-4-yl)methyl)sulfonyl)piperidin-4-yl)-5-cyclopropylisoxazole-3-carboxamide] are 6.20 and 5.46.
On the same counts, the results for `C[C@H]1C[C@@H](NC(=O)c2cc(C3CC3)on2)CCN1S(=O)(=O)N1CCN[C@H](c2ccccc2)C1` [compound 751, 5-cyclopropyl-N-((2S,4S)-2-methyl-1-(((R)-3-phenylpiperazin-1-yl)sulfonyl)piperidin-4-yl)isoxazole-3-carboxamide] are 6.20 and 5.54.
As to `O=C(N[C@@H]1CCN(S(=O)(=O)C2CCNC2)[C@H](Cc2ccccc2)C1)c1cc(C2CC2)on1` (stereo partly drawn) [compound 752, N-((2R,4R)-2-benzyl-1-(pyrrolidin-3-ylsulfonyl)piperidin-4-yl)-5-cyclopropylisoxazole-3-carboxamide], the pIC50 on SMYD3 [1] (setting [3]) is 6.18; at SMYD3 [2] (setting [4]) it was 5.60.
In the case of `O=C(N[C@@H]1C[C@H]2CCC[C@@H](C1)N2S(=O)(=O)c1cncc(F)c1)c1cc(C2CC2)on1` [compound 753, 5-cyclopropyl-N-((1R,3s,5S)-9-((5-fluoropyridin-3-yl)sulfonyl)-9-azabicyclo[3.3.1]nonan-3-yl)isoxazole-3-carboxamide], the negative-log IC50 (pIC50) on SMYD3 [1] (setting [3]) is 6.17; on SMYD3 [2] (setting [4]), 5.69.
Regarding `C[C@H]1C[C@@H](NC(=O)c2cc(C3CC3)on2)CCN1S(=O)(=O)NCc1c(F)cccc1Cl` [compound 754, N-((2S,4S)-1-(N-(2-chloro-6-fluorobenzyl)sulfamoyl)-2-methylpiperidin-4-yl)-5-cyclopropylisoxazole-3-carboxamide], the figures for the negative logarithm of the IC50 (pIC50) on SMYD3 [1] (setting [3]) and on SMYD3 [2] (setting [4]) were 6.17 and 5.43, respectively.
In the case of `C[C@@H]1CN(S(=O)(=O)N2CC[C@H](NC(=O)c3cc(C4CC4)on3)C[C@@H]2C)C[C@H](C)N1C` [compound 755, 5-cyclopropyl-N-((2S,4S)-2-methyl-1-(((3S,5R)-3,4,5-trimethylpiperazin-1-yl)sulfonyl)piperidin-4-yl)isoxazole-3-carboxamide], the pIC50 on SMYD3 [1] (setting [3]) was 6.17; at SMYD3 [2] (setting [4]), 5.62.
For `C[C@H]1C[C@@H](NC(=O)c2cc(C3CC3)on2)CCN1S(=O)(=O)c1ccnc(N)c1` [compound 756, N-((2S,4S)-1-((2-aminopyridin-4-yl)sulfonyl)-2-methylpiperidin-4-yl)-5-cyclopropylisoxazole-3-carboxamide] the same measures were 6.17 and 5.75.
On the same counts, the results for `CN(C1CCNCC1)S(=O)(=O)N1CC[C@@H](NC(=O)c2cc(C3CC3)on2)C[C@H]1Cc1ccccc1` [compound 757, N-((2R,4R)-2-benzyl-1-(N-methyl-N-(piperidin-4-yl)sulfamoyl)piperidin-4-yl)-5-cyclopropylisoxazole-3-carboxamide] are 6.14 and 5.12.
With `O=C(N[C@H]1C[C@H]2CC[C@@H](C1)N2S(=O)(=O)N1CC2COCC(C1)N2)c1cc(C2CC2)on1` [compound 758, N-((1R,3r,5S)-8-((3-oxa-7,9-diazabicyclo[3.3.1]nonan-7-yl)sulfonyl)-8-azabicyclo[3.2.1]octan-3-yl)-5-cyclopropylisoxazole-3-carboxamide], the pIC50 on SMYD3 [1] (setting [3]) was 6.14; on SMYD3 [2] (setting [4]), 5.78.
Regarding `C[C@H]1C[C@@H](NC(=O)c2cc(C3CC3)on2)CCN1S(=O)(=O)N1CCN(C)[C@H](CCO)C1` [compound 759, 5-cyclopropyl-N-((2S,4S)-1-(((R)-3-(2-hydroxyethyl)-4-methylpiperazin-1-yl)sulfonyl)-2-methylpiperidin-4-yl)isoxazole-3-carboxamide], the pIC50 was 6.14 on SMYD3 [1] (setting [3]) and 5.69 at SMYD3 [2] (setting [4]).
As for `CC(=O)NCc1ccc(S(=O)(=O)N2CC[C@H](NC(=O)c3cc(C4CC4)on3)C[C@@H]2C)cc1` [compound 761, N-((2S,4S)-1-((4-(acetamidomethyl)phenyl)sulfonyl)-2-methylpiperidin-4-yl)-5-cyclopropylisoxazole-3-carboxamide], the pIC50 at SMYD3 [1] (setting [3]) is 6.12; at SMYD3 [2] (setting [4]), 5.54.
On the same counts, the results for `COCC1CCCN1CCS(=O)(=O)N1[C@@H]2CC[C@H]1C[C@@H](NC(=O)c1cc(C3CC3)on1)C2` (stereo partly drawn) [compound 762, 5-cyclopropyl-N-((1R,3r,5S)-8-((2-(2-(methoxymethyl)pyrrolidin-1-yl)ethyl)sulfonyl)-8-azabicyclo[3.2.1]octan-3-yl)isoxazole-3-carboxamide] are 6.11 and 5.68.
For `C[C@@H]1C[C@H](NC(=O)c2cc(C3CC3)on2)CCN1C(=O)c1ccc(OCCN2CCNCC2)cc1` [compound 764, 5-cyclopropyl-N-((2R,4R)-2-methyl-1-(4-(2-(piperazin-1-yl)ethoxy)benzoyl)piperidin-4-yl)isoxazole-3-carboxamide], the values for the pIC50 at SMYD3 [1] (setting [3]) and at SMYD3 [2] (setting [4]) were 6.09 and 5.01, respectively.
With `CCN1CCN(S(=O)(=O)N2[C@@H]3CCC[C@@H]2CC(NC(=O)c2cc(C4CC4)on2)C3)CC1` (stereo partly drawn) [compound 765, 5-cyclopropyl-N-((1R,5R)-9-((4-ethylpiperazin-1-yl)sulfonyl)-9-azabicyclo[3.3.1]nonan-3-yl)isoxazole-3-carboxamide], the negative logarithm of the IC50 (pIC50) was 6.08 at SMYD3 [1] (setting [3]) and 5.62 at SMYD3 [2] (setting [4]).
With `O=C(N[C@H]1C[C@H]2CC[C@@H](C1)N2S(=O)(=O)[C@H]1CC[C@@H](NCCO)CC1)c1cc(C2CC2)on1` [compound 767, 5-cyclopropyl-N-((1R,3R,5S)-8-(((1S,4S)-4-((2-hydroxyethyl)amino)cyclohexyl)sulfonyl)-8-azabicyclo[3.2.1]octan-3-yl)isoxazole-3-carboxamide], the pIC50 was 9.40 at SMYD3 [1] (read-out: SMYD3 Biochem IC50*) and 7.71 at SMYD3 [2] (read-out: SMYD3 Cell IC50*).

(Values after US10577363B2, “Substituted piperidine compounds” (EPIZYME, INC., priority 2014, dated 2020).)
